Laboratory results reported in patent publication US7112676B2, “Pyrimido compounds having antiproliferative activity” (Hoffmann-La Roche Inc., priority 2002, dated 2006).

Tests used:
EGFR = EGFR (Homo sapiens, UniProt P00533); assay: EGFR kinase HTRF assay; assay type: biochemical; settings: 0.5 μM ATP, read-out: IC50 (μM) - Enzyme Inhibition Assays EGFR
Experimental: To determine inhibition of KDR, FGFR, EGFR, and PDGFR activity, kinase assays were conducted using an HTRF (Homogeneous Time Resolved Fluorescence) assay. This assay is described in A. J. Kolb et. al., Drug Discovery Today, 1998, 3(7), p 333.
Kinase activity assays were performed in 96-well polypropylene plates (Falcon) with a total volume of 90 μL in each well. Each well contained 1 μM KDR substrate (Biotin-EEEEYFELVAKKKK), 1 nM activated KDR, and a test compound with one of 8 assay concentrations ranging from 100 μM to […] (1:5 serial dilution). The kinase activity assay was done in the presence of 100 mM HEPES, pH 7.4, 1 mM DTT, 0.1 mM Na2VO4, 25 mM MgCl2, 50 mM NaCl (from KDR stock solution), 1% DMSO (from compound), 0.3 mM ATP (at Km concentration) and 0.02% BSA. The reaction was incubated at 37° C. for 30 minutes. To stop the KDR reaction, 72 μL of reaction mixture was transferred into a STOP plate containing 18 μL of revelation buffer (20 mM EDTA, 50 mM HEPES, pH 7.4, 0.02% BSA, 10 nM Eu-labelled anti-pY antibody (final conc. 2 nM), and 100 nM streptavidin (final conc. 20 nM)). After mixing, 35 μL of solution was transferred into duplicate wells of a 384-well black plate (Costar), and read at 615/665 nm on a Wallac Victor 5 reader.
The EGFR kinase activity assay was performed with 1 μM substrate (Biotin-EEEEYFELV), 1.5 nM EGFR, test compounds, 100 mM HEPES, pH 7.4, 1 mM DTT, 5 mM MgCl2, 2 mM MnCl2, 1% DMSO, 0.5 μM ATP (Km for EGFR), 0.1 mM Na2VO4, and 0.02% BSA. The rest of the assay was performed in the same manner as the KDR assay.
Compound IC50 values were determined from duplicate sets of data, and calculated by using Excel and fitting data to equation Y=[(a−b)/{1+(X/c)^d]+b, where a and b are enzyme activity in the presence of no test inhibitor compound and an infinite amount of inhibitor test compound, respectively, c is the IC50 and d is the hill constant of the compound response. The IC50 value is the concentration of test compound that reduces by 50% the enzyme activity under the test conditions described.

VEGF-stimulated HUVEC = VEGF-stimulated HUVEC proliferation assay (BrdU); assay type: cell-based; settings: Homo sapiens, VEGF 20 ng per mL, BrdU labeling, 24 hour exposure, read-out: IC50 (μM) of VEGF and FGF-Stimulated HUVEC Proliferation Assays HUVEC/VEFG
Experimental: (§1) The antiproliferative activity of test compounds of this invention in cell-based assays was evaluated by BrdU assay using the BrdU kit (Roche Biochemicals 1-647-229). Human umbilical vein endothelial cells (HUVEC, Clonetics CC-2519) were cultured in EGM-2 (Clonetics CC-3162) medium and seeded at 10000 cells per well in a volume of 200 μL of EGM-2 (Clonetics CC-3162) media in a 96-well flat bottom plates (Costar 3595) overnight. After 24 hours of growth at 37° C. with 5% CO2, the incubation media was removed slowly by aspiration and the content of each well was washed with 300 μL pre-warmed EBM-2 (Clonetics CC-3156) containing 50 μg per mL of gentamycin and 50 ng per mL of amphotercin-B (Clonetics CC-4083). Subsequently, the remaining media was again aspirated and replaced with 160 μL per well of serum starvation media (EBM-2 supplemented with 1% heat inactivated FBS (Clonetics CC-4102), 50 μg per mL gentamycin and 50 ng per mL of amphotercin-B (Clonetics CC-4083), 10 units per mL of Wyeth-Ayerst heparin (NDC0641-0391-25), and 2 mM L-glutamine (GIBCO 25030-081). After serum starving the cells for 24 hours, 20 μL of test compound at 10× test concentration in serum starvation medium with 2.5% DMSO was added to the appropriate wells. The control wells contained 20 μL of serum starvation medium with 2.5% DMSO. Plates were returned to the incubator for 2 hours. After pre-incubating the cells with the test compounds for 2 hours, 20 μL of growth factors at 10× assay concentration diluted in serum starvation media, FGF at 50 ng per mL, or VEGF (R&D systems 293-VE) at 200 ng per mL were added. The final concentration of FGF in the assay was 5 ng per mL and the final concentration of VEGF in the assays was 20 ng per mL. The growth factor free control wells had 20 μL per well of serum starvation media with the same amount of BSA as the wells with growth factors. The plates were returned to the incubator for an additional 22 hours.
(§2) After 24 hour exposure to the test compounds, the cells were labeled with BrdU (Roche Biochemicals 1-647-229), by adding 20 μL per well of BrdU labeling reagent that has been diluted (1:100) in serum starvation medium. The plates were then returned to the incubator for 4 hours. The labeling medium was removed by draining the medium onto paper towels. The cells were fixed and DNA denatured by adding 200 μL of fixation/denaturation solution to each well and incubating at room temperature for 45 minutes. The fixation/denaturation solution was drained onto paper towels and to each well was added 100 μL of anti-BrdU-POD and the wells were incubated for 2 hours at room temperature. The antibody solution was removed and the wells were each washed 3–4 times with 300 μl PBS. 100 μL of the TMB substrate solution was added to each well and the wells were incubated at room temperature for 5–8 minutes. The reaction was then stopped by adding 100 μL per well of 1 M phosphoric acid. The plates were read at 450 nm with reference wavelength of 650 nm. The percent inhibition for each test compound was calculated by subtracting the absorbency of the blank (no cells) wells from all wells, then subtracting the division of the average absorbency of each test duplicate by the average of the controls from 1. The final product was then multiplied by 100 (% of inhibition=(1−average absorbency of test duplicate/average of control)100). The IC50 value is the concentration of test compound that inhibits by 50% BrdU labeling, and is a measure of inhibition of cell proliferation. The IC50 is determined from the linear regression of a plot of the logarithm of the concentration versus percent inhibition.

FGF-stimulated HUVEC = FGF-stimulated HUVEC proliferation assay (BrdU); assay type: cell-based; settings: Homo sapiens, FGF 5 ng per mL, BrdU labeling, 24 hour exposure, read-out: IC50 (μM) of VEGF and FGF-Stimulated HUVEC Proliferation Assays HUVEC/bFGFR
Experimental: as §1, §2

Chain of EGFR (P00533 25-1210, species assumed): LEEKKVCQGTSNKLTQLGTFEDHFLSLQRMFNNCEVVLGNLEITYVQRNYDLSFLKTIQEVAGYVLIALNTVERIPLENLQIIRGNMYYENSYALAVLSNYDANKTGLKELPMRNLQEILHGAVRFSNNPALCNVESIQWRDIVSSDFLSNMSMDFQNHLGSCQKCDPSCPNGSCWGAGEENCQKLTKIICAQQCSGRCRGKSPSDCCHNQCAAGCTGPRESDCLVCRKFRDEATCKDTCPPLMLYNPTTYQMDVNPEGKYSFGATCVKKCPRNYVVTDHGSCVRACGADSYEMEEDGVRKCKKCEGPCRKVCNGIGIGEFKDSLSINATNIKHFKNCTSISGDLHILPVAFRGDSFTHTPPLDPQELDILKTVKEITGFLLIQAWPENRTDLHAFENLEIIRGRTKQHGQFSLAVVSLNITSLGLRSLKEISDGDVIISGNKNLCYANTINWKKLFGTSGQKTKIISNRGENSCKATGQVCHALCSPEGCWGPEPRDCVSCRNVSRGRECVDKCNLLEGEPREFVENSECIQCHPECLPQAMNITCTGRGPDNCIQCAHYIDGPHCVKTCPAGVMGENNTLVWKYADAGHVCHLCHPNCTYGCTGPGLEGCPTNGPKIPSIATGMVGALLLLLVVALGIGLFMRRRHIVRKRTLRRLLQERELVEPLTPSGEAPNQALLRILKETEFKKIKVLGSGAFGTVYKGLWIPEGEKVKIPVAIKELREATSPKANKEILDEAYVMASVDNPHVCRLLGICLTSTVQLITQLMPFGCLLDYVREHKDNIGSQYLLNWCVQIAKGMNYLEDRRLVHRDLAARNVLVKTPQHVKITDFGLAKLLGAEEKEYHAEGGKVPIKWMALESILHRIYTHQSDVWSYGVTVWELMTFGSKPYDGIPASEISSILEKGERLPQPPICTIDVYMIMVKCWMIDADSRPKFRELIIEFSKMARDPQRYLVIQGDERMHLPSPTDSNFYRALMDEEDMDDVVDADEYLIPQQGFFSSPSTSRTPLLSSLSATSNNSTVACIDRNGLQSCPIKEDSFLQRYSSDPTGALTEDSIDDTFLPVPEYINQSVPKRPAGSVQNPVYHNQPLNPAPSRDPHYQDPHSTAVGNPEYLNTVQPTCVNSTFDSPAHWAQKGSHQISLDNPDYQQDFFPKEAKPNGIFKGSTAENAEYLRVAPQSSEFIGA

Row | Structure (SMILES) | IC50 (EGFR) | IC50 (VEGF-stimulated HUVEC) | IC50 (FGF-stimulated HUVEC) | melting point
1 | COc1ccc(N2C(=O)N(c3ccccc3)c3nc(Nc4ccccc4)ncc3C2C)cc1 (racemic) [Example 1g, (±)-3-(4-Methoxy-phenyl)-4-methyl-1-phenyl-7-phenylamino-3,4-dihydro-1H-pyrimido[4,5-d]pyrimidin-2-one] | < 10 µM | < 10 µM | < 10 µM | 222 to 234 °C
2 | COc1ccc(N2C(=O)N(c3ccc(OC)cc3)C(C)c3cnc(Nc4ccccc4)nc32)cc1 (racemic) [Example 4b, (±)-1,3-Bis-(4-methoxy-phenyl)-4-methyl-7-phenylamino-3,4-dihydro-1H-pyrimido[4,5-d]pyrimidin-2-one] | < 10 µM | < 10 µM | < 10 µM | 228 to 234 °C
3 | COc1ccc(N2C(=O)N(c3cccc(C#N)c3)c3nc(Nc4ccccc4)ncc3C2C)cc1 (racemic) [Example 5b, (±)-3-[3-(4-Methoxy-phenyl)-4-methyl-2-oxo-7-phenylamino-3,4-dihydro-2H-pyrimido[4,5-d]pyrimidin-1-yl]-benzonitrile] | < 10 µM | < 10 µM | < 10 µM | 224 to 228 °C
4 | COc1ccc(N2C(=O)N(c3cccc(C(N)=O)c3)c3nc(Nc4ccccc4)ncc3C2C)cc1 (racemic) [Example 6, (±)-3-[3-(4-Methoxy-phenyl)-4-methyl-2-oxo-7-phenylamino-3,4-dihydro-2H-pyrimido[4,5-d]pyrimidin-1-yl]-benzamide] | < 10 µM | < 10 µM | < 10 µM | 268 to 273 °C
5 | COc1ccc(N2C(=O)N(c3ccccc3)c3nc(Nc4ccccc4)ncc3C2C)c(F)c1 (racemic) [Example 8d, (±)-3-(2-Fluoro-4-methoxy-phenyl)-4-methyl-1-phenyl-7-phenylamino-3,4-dihydro-1H-pyrimido[4,5-d]pyrimidin-2-one] | < 10 µM | < 10 µM | < 10 µM | 242 to 250 °C
6 | COc1ccc(N2C(=O)N(c3cccc(C#N)c3)c3nc(Nc4ccccc4)ncc3C2C)c(F)c1 (racemic) [Example 9b, (±)-3-[3-(2-Fluoro-4-methoxy-phenyl)-4-methyl-2-oxo-7-phenylamino-3,4-dihydro-2H-pyrimido[4,5-d]pyrimidin-1-yl]-benzonitrile] | < 10 µM | < 10 µM | < 10 µM | 223 to 228 °C
7 | COc1ccc(N2C(=O)N(c3cccc(C(N)=O)c3)c3nc(Nc4ccccc4)ncc3C2C)c(F)c1 (racemic) [Example 10, (±)-3-[3-(2-Fluoro-4-methoxy-phenyl)-4-methyl-2-oxo-7-phenylamino-3,4-dihydro-2H-pyrimido[4,5-d]pyrimidin-1-yl]-benzamide] | < 10 µM | < 10 µM | < 10 µM | 282 to 286 °C
8 | COc1ccc(N2C(=O)N(c3ccccc3)c3nc(Nc4ccccc4)ncc3[C@@H]2C)cc1 (single isomer, unassigned) [Example 3] | < 10 µM | < 10 µM | < 10 µM | 223 to 236 °C
9 | COc1ccc(N2C(=O)N([C@H](C)CO)c3nc(Nc4ccccc4)ncc3[C@@H]2C)cc1 [Example 15b, 1-(2-Hydroxy-1-(R)-methyl-ethyl)-3-(4-methoxy-phenyl)-4-(S)-methyl-7-phenylamino-3,4-dihydro-1H-pyrimido[4,5-d]pyrimidin-2-one] | < 10 µM | < 10 µM | < 10 µM | 195 to 198 °C
